Source: the supplement of paper PMC11451515

System: NOMO1
Experiment: cell viability relative to DMSO control; higher = less cytotoxic
Conditions: 48 h
Summary of the method: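 Cells were incubated for 48 h at 37°C before CellTiter-Glo One luminescence was read. The cells were NOMO1 or SEM (500 cells/well) or P12-Ichikawa (1000 cells/well) leukemia cells, adapted for at least four passages in each medium and seeded in 1536-well plates (5 μl). Dosing used library compounds in DMSO applied by pin over 11 threefold points, 47 μM to 0.79 nM. Viability is the per-plate percentage of DMSO wells, with cell-free wells as background.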

[1] = HPLM + 10% dialyzed FBS, 0.000781 µM
[2] = HPLM + 10% dialyzed FBS, 0.00234 µM
[3] = HPLM + 10% dialyzed FBS, 0.00702 µM
[4] = HPLM + 10% dialyzed FBS, 0.0211 µM
[5] = HPLM + 10% dialyzed FBS, 0.0632 µM
[6] = HPLM + 10% dialyzed FBS, 0.19 µM
[7] = HPLM + 10% dialyzed FBS, 0.569 µM
[8] = HPLM + 10% dialyzed FBS, 1.71 µM
[9] = HPLM + 10% dialyzed FBS, 5.12 µM
[10] = HPLM + 10% dialyzed FBS, 15.4 µM
[11] = HPLM + 10% dialyzed FBS, 46.1 µM
[12] = RPMI 5 mM glucose + 10% FBS, 0.000781 µM
[13] = RPMI 5 mM glucose + 10% FBS, 0.00234 µM
[14] = RPMI 5 mM glucose + 10% FBS, 0.00702 µM
[15] = RPMI 5 mM glucose + 10% FBS, 0.0211 µM
[16] = RPMI 5 mM glucose + 10% FBS, 0.0632 µM
[17] = RPMI 5 mM glucose + 10% FBS, 0.19 µM
[18] = RPMI 5 mM glucose + 10% FBS, 0.569 µM
[19] = RPMI 5 mM glucose + 10% FBS, 1.71 µM
[20] = RPMI 5 mM glucose + 10% FBS, 5.12 µM
[21] = RPMI 5 mM glucose + 10% FBS, 15.4 µM
[22] = RPMI 5 mM glucose + 10% FBS, 46.1 µM
[23] = RPMI 5 mM glucose + 10% dialyzed FBS, 0.000781 µM
[24] = RPMI 5 mM glucose + 10% dialyzed FBS, 0.00234 µM
[25] = RPMI 5 mM glucose + 10% dialyzed FBS, 0.00702 µM
[26] = RPMI 5 mM glucose + 10% dialyzed FBS, 0.0211 µM
[27] = RPMI 5 mM glucose + 10% dialyzed FBS, 0.0632 µM
[28] = RPMI 5 mM glucose + 10% dialyzed FBS, 0.19 µM
[29] = RPMI 5 mM glucose + 10% dialyzed FBS, 0.569 µM
[30] = RPMI 5 mM glucose + 10% dialyzed FBS, 1.71 µM
[31] = RPMI 5 mM glucose + 10% dialyzed FBS, 5.12 µM
[32] = RPMI 5 mM glucose + 10% dialyzed FBS, 15.4 µM
[33] = RPMI 5 mM glucose + 10% dialyzed FBS, 46.1 µM

Compound	cell viability [1] [%]	cell viability [2] [%]	cell viability [3] [%]	cell viability [4] [%]	cell viability [5] [%]	cell viability [6] [%]	cell viability [7] [%]	cell viability [8] [%]	cell viability [9] [%]	cell viability [10] [%]	cell viability [11] [%]	cell viability [12] [%]	cell viability [13] [%]	cell viability [14] [%]	cell viability [15] [%]	cell viability [16] [%]	cell viability [17] [%]	cell viability [18] [%]	cell viability [19] [%]	cell viability [20] [%]	cell viability [21] [%]	cell viability [22] [%]	cell viability [23] [%]	cell viability [24] [%]	cell viability [25] [%]	cell viability [26] [%]	cell viability [27] [%]	cell viability [28] [%]	cell viability [29] [%]	cell viability [30] [%]	cell viability [31] [%]	cell viability [32] [%]	cell viability [33] [%]
COc1cc(Cl)cn2c(-c3cccc(NC4CNC4)n3)cnc12	123	115	118	142	152	148	141	150	129	129	111																						
Nc1ccn([C@H]2CS[C@@H](CO)O2)c(=O)n1												112	122	144	133	135	138	139	148	133	140	145											
C=CC(=O)Nc1ccc2ncnc(Nc3ccc(OCc4cccc(F)c4)c(Cl)c3)c2c1	82.4	93.3	99.9	96.7	105	99.4	98.1	72.4	22.2	17.1	12.6	92.6	91.8	114	115	107	95.8	101	93.3	13.6	14.7	9.53	92.9	85.7	93.5	91.3	104	92.6	93	94	21.4	18.3	11.8
Cc1ccc(/C=N/NC(=O)c2ccccc2Oc2ccccc2)o1	102	100	104	97.7	101	102	104	91.3	98	81.5	69.6	102	96.4	97.2	88.7	86.7	91.2	88	80.4	83.5	83.3	80.9	98.9	96.3	95.1	89.4	113	101	95.6	96.3	85.9	96.9	86.3
C[N]1N=CC=C1C/2=C(\C)N(C(=O)C(=C2)/C(=O)NCC3=NC=C(C=C3)[S+](C)([O-])=O)C4=CC=CC(=C4)C(F)(F)F												105	127	98.9	107	118	102	102	97.5	100	96.2	93.5	99	106	101	113	111	123	95.7	79.7	79.7	90.1	103
NC[C@H]1O[C@H](O[C@H]2[C@H](O)[C@@H](O[C@H]3O[C@H](CO)[C@@H](O)[C@H](N)[C@H]3O)[C@H](N)C[C@@H]2N)[C@H](N)C[C@@H]1O	103	99.1	122	92.5	110	106	112	102	102	91.9	106	109	103	101	110	104	103	105	94.6	104	101	107	95.3	101	95.2	96	96.6	99.7	94.3	89.7	81.7	97.2	93.4
OC[C@H]1OC(OC2=CC3=C(C(=C2)O)C(=O)\C(=C/O3)C4=CC=C(O)C=C4)[C@H](O)[C@@H](O)[C@@H]1O (stereo not given in full)	94	86.6	79.6	92.8	89.9	89.2	72	61.9	88.9	72	74.2	78.9	92.5	85.9	77.8	92	90.7	87.9	84.7	84.1	86.3	72	88.5	73.9	78.6	78.5	80.8	73.4	80.4	82.8	76.7	77.8	66.7
CC1=C(/C=C/C(C)=C/C=C/C(C)=C/C(=O)O)C(C)(C)CCC1	106	106	144	126	114	127	110	104	98	84.3	80.3	128	124	114	111	118	122	128	110	94	99.1	68.4											
Cc1ccc(-c2cc(C(F)(F)F)nn2-c2ccc([S+](N)(=O)[O-])cc2)cc1												115	122	110	126	126	114	115	112	112	128	103	121	119	121	118	107	110	117	121	104	109	92.7
